Results as given in patent publication US8217024B2, “Conjugated estrogen compositions, applicators, kits, and methods of making and use thereof” (Teva Women's Health, Inc., priority 2005, dated 2012).

Experiment: Spreadability study (125 g load on 2 g product between two petri plates)
Assay type: physicochemical
Conditions: 15 minutes after 125 g load on 2 g of product
Experimental: Spreadability studies were also performed for the formulations described in Table 4. Spreadability studies were conducted by applying a 125 g weight load on 2 g of product placed between two petri plates. The weight was placed on the petri plate over the product and the mean diameter of spreading was monitored over 1, 5, and 15 minutes. Based upon the mean spread diameter, the spread area was calculated. See, e.g., De Paula et al., Drug Dev Ind Pharm 24(3): 235-241 (1998). The results for spreadability are indicated in Table 5 for spread area at 15 minutes after the 125 g load was applied.

Compound	% Spread as compared to estimated human vaginal surface area (87.5 cm^2) [%]	Spread Area (cm^2)
OCC(O)CO [Glycerin]	80.2	70.2
O [Water]	89.4	78.2
